Test results from article PMC11374673, “Discovery of isoquinoline sulfonamides as allosteric gyrase inhibitors with activity against fluoroquinolone-resistant bacteria” (Nature Chemistry, 2024).
Values joined by “and” are separate entries in the source; they are usually repeats but may differ in a detail not shown here. Equal entries are not always repeated. Values belong to the compound of their own block, whether it stands above or below them.

Experiments:
[1] = test system: E. coli W3110; test: H-89 derivatives rescreen, 50 µM; assay type: cell-based; conditions: Escherichia coli, H-89 derivative rescreen, highest 50 µM
Method: From glycerol stocks, E. coli W3110 was cultured on blood agar plates (PB5039A, Thermo Scientific) by overnight (18 ± 2 h) aerobic incubation at 37 °C. A single colony was transferred to tryptic soy broth (TSB, 02-200-500, Scharlab). The cultures were grown to exponential phase (OD600 of 0.5) at 37 °C. The bacterial suspensions were diluted 200-fold in cation-adjusted Mueller–Hinton broth (CAMHB) and 99 µl was added to a library of test compounds (1 µl 10 mM DMSO stock, per well in technical duplicates) in polypropylene 96-well microtitre plates to reach a volume of 100 µl and a final concentration of 100 µM for each test compound and a maximum of 1% DMSO. […] Screening hits were selected from the wells where no visible bacterial growth was observed, as compared with the inoculum controls containing 1% DMSO. The follow-up screen of H-89 derivatives was performed under similar conditions with a final concentration of 50 µM.

[2] = test system: E. coli W3110; test: MIC by broth microdilution; assay type: cell-based, Escherichia coli; conditions: Escherichia coli
Summary of the method: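 Broth microdilution in CAMHB: twofold compound series inoculated with 100-fold-diluted bacteria from exponential growth (OD600 0.5, 37 °C); kanamycin 50 µg ml^−1 added for Keio collection strains. Overnight incubation, 37 °C, 600 r.p.m. shaking.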

[3] = test system: 60-resistant (60-r) isolates of E. coli W3110; test: microbe, parasite or virus in culture; assay type: cell-based, Escherichia coli; conditions: Escherichia coli
Method: MIC was determined by broth microdilution. Single-colony cultures were grown to exponential phase (OD600 of 0.5) aerobically at 37 °C. In case of strains from the Keio collection, 50 µg ml^−1 kanamycin was supplemented to the media to ascertain a homogeneous population. The bacterial suspensions were diluted 100-fold in CAMHB and 50 µl was added to a twofold serial dilution series of test compounds (50 µl per well) in polypropylene 96-well microtitre plates to reach a volume of 100 µl. The plates were sealed with breathable membranes and incubated overnight at 37 °C with constant shaking (600 r.p.m.). The MIC was determined as the lowest concentration at which no visible bacterial growth was observed as compared with the inoculum controls from the median of a minimum of triplicates.
The plates were incubated at 37 °C and checked for growth after 24 and 48 h. […] Nine colonies with an increased MIC were selected for further analysis and stored as glycerol stocks.

[4] = test system: E. coli W3110; test: Time-kill assay
Method: From glycerol stocks, bacterial strains were cultured on blood agar plates by overnight incubation at 37 °C. Subsequently, a single colony was cultured in TSB overnight at 37 °C. The culture was diluted 100-fold in fresh CAMHB and grown until early exponential phase (OD600 of 0.25) followed by 100-fold dilution in media. The culture was split in separate culture tubes containing 2 ml. […] The supernatant was discarded and pellets were washed once with filter-sterilized PBS, then resuspended in an equal volume of fresh buffer and samples were tenfold serially diluted until a 10^5 dilution. Then, 10 µl of the appropriate dilutions were inoculated on LB agar plates in technical duplicates, subsequently allowed to evaporate and incubated at 37 °C for 18 h. The colonies were counted and used to calculate the colony forming unit (c.f.u.) per ml remaining in the original culture by taking the dilution factors into account. The experiment was performed in biological duplicates.

Compound: O=C(CCc1ccc(-c2cnc3[nH]ccc3c2)cc1)NCCNS(=O)(=O)c1ccc(F)cc1 [Compound 25]
MIC [1]: > 50 µM

Compound: O=C(CCc1ccc(-c2cnc3[nH]ccc3c2)cc1)NCCNS(=O)(=O)c1ccc(Cl)c(Cl)c1 [Compound 14]
MIC [1]: > 50 µM

Compound: O=C(CCc1ccc(-c2cnc3[nH]ccc3c2)cc1)NCCNS(=O)(=O)c1cccc([N+](=O)[O-])c1 [Compound 23]
MIC [1]: > 50 µM

Compound: O=[N+]([O-])c1ccccc1S(=O)(=O)NCCNC/C=C/c1ccc(-c2cccnc2)cc1 [Compound 7]
MIC [1]: > 50 µM

Compound: CC(C)(C)c1cc(NC(=O)CCC#Cc2ccc(N)nc2)no1 [Compound 29]
MIC [1]: > 50 µM

Compound: CC(C)(C)c1cc(C(=O)NCC#Cc2cnc3[nH]ccc3c2)no1 [Compound 31]
MIC [1]: > 50 µM

Compound: COc1ccc(S(=O)(=O)NCCNCCCc2ccc(-c3cnc4[nH]ccc4c3)cc2)cc1 [Compound 20]
MIC [1]: > 50 µM

Compound: O=C(CCC#Cc1cnc2[nH]ccc2c1)NCCNS(=O)(=O)c1cccc2cnccc12 [Compound 21]
MIC [1]: > 50 µM

Compound: COc1ccc(S(=O)(=O)NCCNC(=O)CCc2ccc(-c3cnc4[nH]ccc4c3)cc2)cc1 [Compound 16]
MIC [1]: > 50 µM

Compound: COc1cc(Cc2cnc(N)nc2N)cc(OC)c1OC [TMP, trimethoprim]
MIC ([2]; W3110): 0.16 µg/mL | MIC ([2]; W3110, read-out: MIC E. coli W3110): 0.375 µM | MIC ([3]; E. coli W3110 60-r1): 0.375 µM and 0.16 µg/mL | MIC ([3]; E. coli W3110 60-r3): 0.18 µM and 0.08 µg/mL | MIC ([3]; E. coli W3110 60-r6): 0.375 µM and 0.16 µg/mL | time kill kinetics, bacterial count ([4]; 4xMIC, 0.5 h, n = 1 and n = 2): 5.161 and 5.204 | time kill kinetics, bacterial count ([4]; 4xMIC, 1 h): 5.041 and 5.342 | time kill kinetics, bacterial count ([4]; 4xMIC, 2 h): 5.322 and 4.954 | time kill kinetics, bacterial count ([4]; 4xMIC, 4 h): 4.255 and 4.204 | time kill kinetics, bacterial count ([4]; 4xMIC, 8 h): 2.845 and 2.602 | time kill kinetics, bacterial count ([4]; 4xMIC, 24 h): 2 | time kill kinetics, bacterial count ([4]; 8xMIC, 0.5 h): 6.217 and 6.23 | time kill kinetics, bacterial count ([4]; 8xMIC, 1 h): 4.978 and 5.097 | time kill kinetics, bacterial count ([4]; 8xMIC, 2 h): 5.176 and 4.929 | time kill kinetics, bacterial count ([4]; 8xMIC, 4 h): 3.544 and 3.423 | time kill kinetics, bacterial count ([4]; 8xMIC, 8 h): 2.699 | time kill kinetics, bacterial count ([4]; 8xMIC, 24 h): 2.301 and 2

Compound: CC(C)(C)c1cc(NC(=O)CCC#Cc2cnc3[nH]ccc3c2)no1 [Compound 28]
MIC [1]: > 50 µM

Now from value to compound:

MIC [1]: > 50 µM
Compound: CNC(=O)c1ccc(-c2ccc(CCC(=O)NCCNS(=O)(=O)c3cccc4cnccc34)cc2)cn1 [Compound 42]

MIC [1]: > 50 µM
Compound: O=S(=O)(NCCNCCCCc1ccc(-c2cccnc2)cc1)c1cccc2cnccc12 [Compound 39]

MIC [1]: > 50 µM
Compound: O=S(=O)(NCCNCCCc1ccc(-c2cnc3[nH]ccc3c2)cc1)c1cccc2cnccc12 [Compound 45]

MIC [1]: > 50 µM
Compound: O=S(=O)(NCCNC/C=C/c1ccccc1-c1ccc2c(c1)OCO2)c1cccc2cnccc12 [Compound 46]

MIC [1]: > 50 µM
Compound: O=C(/C=C/c1ccc(-c2cccnc2)cc1)NCCNS(=O)(=O)c1cccc2cnccc12 [Compound 38]
